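Compound exposure: 48 hours, 5 concentrations, 96-well plates. Abbreviation: GI50, concentration required for 50% inhibition of growth. TGI: concentration producing complete growth inhibition.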
Experiments:
Assay in all cases: NCI tumour cell line growth inhibition, 48 h
LXFL 529 NSCLC = tested on: LXFL 529 NSCLC
HT29 colon = tested on: HT29 colon
NCI-H23 lung = tested on: NCI-H23 lung
SF-295 CNS = tested on: SF-295 CNS
UACC-257 melanoma = tested on: UACC-257 melanoma
HCT-116 colon = tested on: HCT-116 colon
UACC-62 melanoma = tested on: UACC-62 melanoma
K-562 leukemia = tested on: K-562 leukemia
A549 NSCLC = tested on: A549 NSCLC
ACHN renal = tested on: ACHN renal
HOP-62 NSCLC = tested on: HOP-62 NSCLC
SK-MEL-5 melanoma = tested on: SK-MEL-5 melanoma
SR leukemia = tested on: SR leukemia
HCC-2998 colon = tested on: HCC-2998 colon
UO-31 renal = tested on: UO-31 renal
HCT-15 colon = tested on: HCT-15 colon
HL-60(TB) leukemia = tested on: HL-60(TB) leukemia
SF-539 CNS = tested on: SF-539 CNS
DMS 114 small cell lung = tested on: DMS 114 small cell lung
OVCAR-4 ovarian = tested on: OVCAR-4 ovarian
SN12C renal = tested on: SN12C renal
A498 renal = tested on: A498 renal
OVCAR-3 ovarian = tested on: OVCAR-3 ovarian
TK-10 renal = tested on: TK-10 renal
SF-268 CNS = tested on: SF-268 CNS
MALME-3M melanoma = tested on: MALME-3M melanoma
RXF 393 renal = tested on: RXF 393 renal
NCI-H226 lung = tested on: NCI-H226 lung
NCI-H460 lung = tested on: NCI-H460 lung
LOX IMVI melanoma = tested on: LOX IMVI melanoma
786-0 renal = tested on: 786-0 renal
OVCAR-8 ovarian = tested on: OVCAR-8 ovarian
DMS 273 small cell lung = tested on: DMS 273 small cell lung
SK-MEL-28 melanoma = tested on: SK-MEL-28 melanoma
XF 498 CNS = tested on: XF 498 CNS
M19-MEL melanoma = tested on: M19-MEL melanoma
RXF-631 renal = tested on: RXF-631 renal
MOLT-4 leukemia = tested on: MOLT-4 leukemia
SNB-19 CNS = tested on: SNB-19 CNS
HOP-92 NSCLC = tested on: HOP-92 NSCLC
KM12 colon = tested on: KM12 colon
OVCAR-5 ovarian = tested on: OVCAR-5 ovarian
CCRF-CEM leukemia = tested on: CCRF-CEM leukemia
SW-620 colon = tested on: SW-620 colon
SNB-75 CNS = tested on: SNB-75 CNS
RPMI-8226 leukemia = tested on: RPMI-8226 leukemia
KM20L2 colon = tested on: KM20L2 colon
M14 melanoma = tested on: M14 melanoma
HOP-18 NSCLC = tested on: HOP-18 NSCLC
DLD-1 colon = tested on: DLD-1 colon
EKVX NSCLC = tested on: EKVX NSCLC
IGROV1 ovarian = tested on: IGROV1 ovarian
CAKI-1 renal = tested on: CAKI-1 renal
SK-MEL-2 melanoma = tested on: SK-MEL-2 melanoma
SNB-78 CNS = tested on: SNB-78 CNS

`Cc1ccncc1.[O]=[Ge].[O]=[Ge].[O]=[Ge].[O]=[Ge].[O]=[Ge].[O]=[Ge][OH].[O]=[Ge][OH]` was tested, and the GI50 (LXFL 529 NSCLC) was > 100 µM, the TGI (LXFL 529 NSCLC) was > 100 µM and the GI50 (HT29 colon) was > 100 µM. For the same compound, the TGI (HT29 colon) was > 100 µM, the GI50 (NCI-H23 lung) was > 100 µM and the TGI (NCI-H23 lung) was > 100 µM. For the same compound, the GI50 (SF-295 CNS) was > 100 µM, the TGI (SF-295 CNS) was > 100 µM and the GI50 (UACC-257 melanoma) was > 100 µM. The TGI (UACC-257 melanoma) was > 100 µM, the GI50 (HCT-116 colon) was > 100 µM and the TGI (HCT-116 colon) was > 100 µM. The GI50 (UACC-62 melanoma) was > 100 µM, the TGI (UACC-62 melanoma) was > 100 µM and the GI50 (K-562 leukemia) was > 100 µM. For the same compound, the TGI (K-562 leukemia) was > 100 µM, the GI50 (A549 NSCLC) was > 100 µM and the TGI (A549 NSCLC) was > 100 µM. For the same compound, the GI50 (ACHN renal) was > 100 µM, the TGI (ACHN renal) was > 100 µM and the GI50 (HOP-62 NSCLC) was > 100 µM. The TGI (HOP-62 NSCLC) was > 100 µM, the GI50 (SK-MEL-5 melanoma) was > 100 µM and the TGI (SK-MEL-5 melanoma) was > 100 µM. The GI50 (SR leukemia) was > 100 µM, the TGI (SR leukemia) was > 100 µM and the GI50 (HCC-2998 colon) was > 100 µM. The TGI (HCC-2998 colon) was > 100 µM, the GI50 (UO-31 renal) was > 100 µM and the TGI (UO-31 renal) was > 100 µM. The GI50 (HCT-15 colon) was > 100 µM, the TGI (HCT-15 colon) was > 100 µM and the GI50 (HL-60(TB) leukemia) was > 100 µM. For the same compound, the TGI (HL-60(TB) leukemia) was > 100 µM, the GI50 (SF-539 CNS) was > 100 µM and the TGI (SF-539 CNS) was > 100 µM. For the same compound, the GI50 (DMS 114 small cell lung) was > 100 µM, the TGI (DMS 114 small cell lung) was > 100 µM and the GI50 (OVCAR-4 ovarian) was > 100 µM. For the same compound, the TGI (OVCAR-4 ovarian) was > 100 µM, the GI50 (SN12C renal) was > 100 µM and the TGI (SN12C renal) was > 100 µM. For the same compound, the GI50 (A498 renal) was > 100 µM, the TGI (A498 renal) was > 100 µM and the GI50 (OVCAR-3 ovarian) was > 100 µM. The TGI (OVCAR-3 ovarian) was > 100 µM, the GI50 (TK-10 renal) was > 100 µM and the TGI (TK-10 renal) was > 100 µM. For the same compound, the GI50 (SF-268 CNS) was > 100 µM, the TGI (SF-268 CNS) was > 100 µM and the GI50 (MALME-3M melanoma) was > 100 µM. For the same compound, the TGI (MALME-3M melanoma) was > 100 µM, the GI50 (RXF 393 renal) was > 100 µM and the TGI (RXF 393 renal) was > 100 µM. For the same compound, the GI50 (NCI-H226 lung) was > 100 µM, the TGI (NCI-H226 lung) was > 100 µM and the GI50 (NCI-H460 lung) was > 100 µM. For the same compound, the TGI (NCI-H460 lung) was > 100 µM, the GI50 (LOX IMVI melanoma) was > 100 µM and the TGI (LOX IMVI melanoma) was > 100 µM. The GI50 (786-0 renal) was > 100 µM, the TGI (786-0 renal) was > 100 µM and the GI50 (OVCAR-8 ovarian) was > 100 µM. For the same compound, the TGI (OVCAR-8 ovarian) was > 100 µM, the GI50 (DMS 273 small cell lung) was > 100 µM and the TGI (DMS 273 small cell lung) was > 100 µM. For the same compound, the GI50 (SK-MEL-28 melanoma) was > 100 µM, the TGI (SK-MEL-28 melanoma) was > 100 µM and the GI50 (XF 498 CNS) was > 100 µM. The TGI (XF 498 CNS) was > 100 µM, the GI50 (M19-MEL melanoma) was > 100 µM and the TGI (M19-MEL melanoma) was > 100 µM. The GI50 (RXF-631 renal) was > 100 µM, the TGI (RXF-631 renal) was > 100 µM and the GI50 (MOLT-4 leukemia) was > 100 µM. The TGI (MOLT-4 leukemia) was > 100 µM, the GI50 (SNB-19 CNS) was > 100 µM and the TGI (SNB-19 CNS) was > 100 µM. For the same compound, the GI50 (HOP-92 NSCLC) was > 100 µM, the TGI (HOP-92 NSCLC) was > 100 µM and the GI50 (KM12 colon) was > 100 µM. For the same compound, the TGI (KM12 colon) was > 100 µM, the GI50 (OVCAR-5 ovarian) was > 100 µM and the TGI (OVCAR-5 ovarian) was > 100 µM. The GI50 (CCRF-CEM leukemia) was > 100 µM, the TGI (CCRF-CEM leukemia) was > 100 µM and the GI50 (SW-620 colon) was > 100 µM. For the same compound, the TGI (SW-620 colon) was > 100 µM, the GI50 (SNB-75 CNS) was > 100 µM and the TGI (SNB-75 CNS) was > 100 µM. For the same compound, the GI50 (RPMI-8226 leukemia) was > 100 µM, the TGI (RPMI-8226 leukemia) was > 100 µM and the GI50 (KM20L2 colon) was > 100 µM. For the same compound, the TGI (KM20L2 colon) was > 100 µM, the GI50 (M14 melanoma) was > 100 µM and the TGI (M14 melanoma) was > 100 µM. The GI50 (HOP-18 NSCLC) was > 100 µM, the TGI (HOP-18 NSCLC) was > 100 µM and the GI50 (DLD-1 colon) was > 100 µM. For the same compound, the TGI (DLD-1 colon) was > 100 µM, the GI50 (EKVX NSCLC) was > 100 µM and the TGI (EKVX NSCLC) was > 100 µM. For the same compound, the GI50 (IGROV1 ovarian) was > 100 µM, the TGI (IGROV1 ovarian) was > 100 µM and the GI50 (CAKI-1 renal) was > 100 µM. For the same compound, the TGI (CAKI-1 renal) was > 100 µM, the GI50 (SK-MEL-2 melanoma) was > 100 µM and the TGI (SK-MEL-2 melanoma) was > 100 µM. The GI50 (SNB-78 CNS) was > 100 µM and the TGI (SNB-78 CNS) was > 100 µM.
